US20240216462A1, “PHARMACEUTICAL COMPOSITION FOR ENHANCING IMMUNITY OR ANTI-CANCER ACTIVITY INCLUDING EXTRACT OF PSEUDOLYSIMACHION NAKAIANUM (OHWI) T.YAMAZ AS ACTIVE INGREDIENT” (KOREA INSTITUTE OF SCIENCE AND TECHNOLOGY, priority 2022, published 2024)

Tests used:
[1] = system: CD4+ T cells induced to differentiate into Treg; assay: Differentiation and function of Treg cells (Foxp3 expression); assay type: cell-based, C57BL/6J mice; conditions: 25 μM final concentration; culture for 3 days in medium containing IL-2 and TGF-beta1; control about 19%
Experimental: • 8-week-old C57BL/6J mice were purchased and adapted for 1 week, and then CD4+ T cells were isolated from spleens and lymph nodes. Differentiation of regulatory T cells was transferred through a medium containing IL-2 and TGF-beta1, and through culture for 3 days, it was confirmed that about 19% of a Foxp3 transcription factor was expressed in the control group. Each substance was treated at a final concentration of 25 μM.

[2] = system: CD4+ T cells induced to differentiate into Th17; assay: Differentiation and functional enhancement activity of Th17 cells (IL-17 expression); assay type: cell-based, C57BL/6J mice; conditions: 25 μM final concentration; culture for 3 days under Th17 differentiation conditions; Veh control about 35%
Source text: 8-week-old C57BL/6J mice were purchased and adapted for 1 week, and then CD4+ T cells were isolated from spleens and lymph nodes. Th17 cell differentiation was induced by media containing IL-6, TGF-beta1, IL-1beta, anti-IFN-gamma, and anti-IL-4, and through culturing for 3 days, it was confirmed that about 35% of IL-17 cytokine was expressed in a Veh group, which was a control group treated with only a solvent of the compound, thereby establishing basic conditions for the differentiation of Th17 cells. Under the conditions of differentiation of Th17 cells, each substance was treated at a final concentration of 25 μM.
As a result, as may be seen in the drawings, it was confirmed that Compounds 1 to 3 increased the IL-17 cytokine expression by 70%, 63%, and 62%, respectively, and through this, it was confirmed that the three compounds were able to improve the differentiation and function of Th17 cells.

| Structure (SMILES) | reduced the Foxp3 transcription factor expression [1] [%] | increased the IL-17 cytokine expression [2] [%] |
| --- | --- | --- |
| CO[C@@H]1C[C@H]2[C@H](OC(=O)c3ccc(O)c(O)c3)[C@@H]3O[C@]3(CO)[C@H]2C(O[C@@H]2O[C@H](CO)[C@@H](O)[C@H](O)[C@H]2O)O1 (stereo partly drawn) [Compound 1, veroninakaioside G] | 4.4 | 70 |
| COc1ccc(CCO[C@@H]2O[C@H](CO)[C@@H](OC(=O)/C=C/c3ccc(O)c(OC)c3)[C@H](O[C@@H]3O[C@H](CO)[C@@H](O)[C@H](O)[C@H]3O)[C@H]2O[C@@H]2O[C@H](CO)[C@@H](O)[C@H](O)[C@H]2O)cc1O [Compound 2, chionoside I] | 8.3 | 63 |
| COc1cc(/C=C/C(=O)OC[C@H]2O[C@@H](OCCc3ccc(O)c(OC)c3)[C@H](O)[C@@H](O[C@@H]3O[C@H](CO)[C@@H](O)[C@H](O)[C@H]3O[C@@H]3O[C@H](CO)[C@@H](O)[C@H](O)[C@H]3O)[C@@H]2O)ccc1O [Compound 3, veroninakaioside H] | 6.6 | 62 |
